Tests used:
Format in all cases: cell-based
Design in all cases: Fold induction, AR response reporter
[1] = target: T1, AR (Homo sapiens, UniProt P10275); conditions: for rank by relative PSA level, most active to least active: 500 nM; for PSA levels of LN-AR cells: 100, 200, 500, and 1000 nM, FIG. 20
T1 sequence (P10275 1-920): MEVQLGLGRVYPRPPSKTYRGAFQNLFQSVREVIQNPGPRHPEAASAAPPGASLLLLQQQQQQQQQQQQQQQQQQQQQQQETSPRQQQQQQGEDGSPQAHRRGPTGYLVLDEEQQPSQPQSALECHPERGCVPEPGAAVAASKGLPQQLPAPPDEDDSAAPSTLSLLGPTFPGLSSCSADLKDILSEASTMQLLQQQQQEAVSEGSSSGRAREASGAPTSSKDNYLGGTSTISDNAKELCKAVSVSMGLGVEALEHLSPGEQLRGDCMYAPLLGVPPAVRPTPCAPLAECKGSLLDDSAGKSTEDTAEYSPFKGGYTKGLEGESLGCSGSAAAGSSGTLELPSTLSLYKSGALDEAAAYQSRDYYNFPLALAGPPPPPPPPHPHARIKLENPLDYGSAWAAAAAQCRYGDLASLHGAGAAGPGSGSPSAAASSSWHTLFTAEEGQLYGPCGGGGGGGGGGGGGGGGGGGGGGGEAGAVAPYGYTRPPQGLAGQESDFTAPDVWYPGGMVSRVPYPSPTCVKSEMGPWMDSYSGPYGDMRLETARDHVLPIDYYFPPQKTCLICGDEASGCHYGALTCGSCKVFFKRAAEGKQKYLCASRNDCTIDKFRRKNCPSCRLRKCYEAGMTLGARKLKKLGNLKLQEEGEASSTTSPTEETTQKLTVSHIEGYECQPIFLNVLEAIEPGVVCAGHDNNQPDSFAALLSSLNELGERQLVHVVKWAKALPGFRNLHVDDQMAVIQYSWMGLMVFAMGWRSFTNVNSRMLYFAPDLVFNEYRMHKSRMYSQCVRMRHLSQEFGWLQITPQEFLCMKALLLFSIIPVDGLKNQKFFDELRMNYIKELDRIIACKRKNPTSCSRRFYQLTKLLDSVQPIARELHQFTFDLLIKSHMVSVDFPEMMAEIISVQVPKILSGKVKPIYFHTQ
Description: It is well established that PSA levels are indicators of AR activities in prostate cancer. […] The LNCaP-AR cells are a line of lymph node carcinoma of prostate cells transduced with a plasmid that makes express androgen receptors. […] After four days incubation, secreted PSA levels were assayed using PSA ELISA kits (American Qualex, San Clemente, Calif.)

[2] = target: T1, AR; conditions: LN-AR, absence of R1881
Description: Activities of AR response reporter were measured.

[3] = target: T1, AR; conditions: AR over expressed LNCaP, absence of R1881
[4] = target: T1, AR; conditions: for luciferase activity in LNCaP-AR cells: 125 nM to 1000 nM; for luciferase activity in LNCaP-AR cells / rank by relative luciferase activity, most active to least active: FIG. 3; for rank by relative luciferase activity, most active to least active: 500 nM; for inhibitory activity on AR response reporter: hormone refractory LNCaP-AR
Description: The compounds were subjected to tests using an artificial AR response reporter system in a hormone refractory prostate cancer cell line. […] After two days of incubation, reporter activities were assayed.

[5] = LN/AR cell line, 125 nmol to 1000 nmol

SMILES: N#Cc1ccc(N2C(=O)C3(CCC3)N(c3ccc(N4CCNCC4)cc3)C2=S)cc1C(F)(F)F [NC49, 4-[8-Oxo-5-(4-piperazin-1-yl-phenyl)-6-thioxo-5,7-diazaspiro[3.4]oct-7-yl]-2-trifluoromethylbenzonitrile]
- decrease in PSA level of LNCaP-AR cells (comparison) [1]: greater decrease in PSA level than bicalutamide
- rank by relative PSA level, most active to least active [1]: NC50>NC48>NC7>NC43>NC44>NC49>NC50>NC45>bicalutamide

SMILES: N#Cc1ccc(N2C(=O)C3(CCC3)N(c3ccc(CCCC(N)=O)cc3)C2=S)cc1C(F)(F)F [NC47, 4-{4-[7-(4-Cyano-3-trifluoromethylphenyl)-8-oxo-6-thioxo-5,7-diaza-spiro[3.4]oct-5-yl]-phenyl}-butyramide]
- PSA level (comparison) [1, 5]: less than the PSA level upon exposure to NC42 and NC46

SMILES: CCNC(=S)N=C1N(c2ccc(C#N)c(C(F)(F)F)c2)C(=S)N(c2ccc(C)cc2)C1(C)C [NC34, 1-[3-(4-cyano-3-trifluoromethyl-phenyl)-5,5-dimethyl-2-thioxo-1-p-tolyl-imidazolidin-4-ylidene]-3-ethyl-thiourea]
- agonistic activity on AR response reporter [2]: no agonistic activity
- agonistic activity on secreted PSA [3]: no agonistic activities

SMILES: N#Cc1ccc(N2C(=O)C3(CCC3)N(c3ccc(CCC(N)=O)cc3)C2=S)cc1C(F)(F)F [NC43, 3-{4-[7-(4-cyano-3-trifluoromethylphenyl)-8-oxo-6-thioxo-5,7-diaza-spiro[3.4]oct-5-yl]-phenyl}-propionamide]
- decrease in PSA level of LNCaP-AR cells (comparison) [1]: greater decrease in PSA level of LNCaP-AR cells than NC45 and NC49
- rank by relative PSA level, most active to least active [1]: NC50>NC48>NC7>NC43>NC44>NC49>NC50>NC45>bicalutamide

SMILES: N#Cc1ccc(N2C(=O)C3(CCC3)N(c3ccc(O)cc3F)C2=S)cc1C(F)(F)F [NC69]
- luciferase activity in LNCaP-AR cells [4]: acted to reduce luciferase activity
- rank by relative luciferase activity, most active to least active [4]: NC67>NC68>NC66>NC69>NC77=NC53>bicalutamide

SMILES: CS(=O)(=O)N1CCN(c2ccc(N3C(=S)N(c4ccc(C#N)c(C(F)(F)F)c4)C(=O)C34CCC4)cc2)CC1 [NC50, 4-{5-[4-(4-methanesulfonylpiperazin-1-yl)-phenyl]-8-oxo-6-thioxo-5,7-diazaspiro[3.4]oct-7-yl}-2-trifluoromethylbenzonitrile]
- decrease in PSA level of LNCaP-AR cells (comparison) [1]: greater decrease in PSA level of LNCaP-AR cells than NC45 and NC49
- rank by relative PSA level, most active to least active [1]: NC50>NC48>NC7>NC43>NC44>NC49>NC50>NC45>bicalutamide

SMILES: CN1C(=O)N(c2ccc(C#N)c(C(F)(F)F)c2)C(=O)C12CCCC2 [NC27, 4-(1-methyl-2,4-dioxo-1,3-diaza-spiro[4.4]non-3-yl)-2-trifluoromethylbenzonitrile, reference compound]
- inhibitory activity on AR response reporter [4]: no inhibitory activities
- agonistic activity on AR response reporter [2]: strongly activated AR

SMILES: CNC(=O)c1ccc(N2C(=S)N(c3ccc(C#N)c(C(F)(F)F)c3)C(=O)C2(C)C)cc1 [NC68]
- luciferase activity in LNCaP-AR cells [4]: acted to reduce luciferase activity
- rank by relative luciferase activity, most active to least active [4]: NC67>NC68>NC66>NC69>NC77=NC53>bicalutamide
- luciferase activity (comparison) [4, 5]: less than the luciferase activity upon exposure to NC103

SMILES: CNC(=O)CCc1ccc(N2C(=S)N(c3ccc(C#N)c(C(F)(F)F)c3)C(=O)C23CCC3)cc1 [NC44, 3-{4-[7-(4-Cyano-3-trifluoromethylphenyl)-8-oxo-6-thioxo-5,7-diaza-spiro[3.4]oct-5-yl]-phenyl}-N-methyl-propionamide]
- decrease in PSA level of LNCaP-AR cells (comparison) [1]: greater decrease in PSA level of LNCaP-AR cells than NC45 and NC49
- rank by relative PSA level, most active to least active [1]: NC50>NC48>NC7>NC43>NC44>NC49>NC50>NC45>bicalutamide

SMILES: Cc1ccc(N2C(=S)N(c3ccc(C#N)c(C(F)(F)F)c3)C(=NC(=S)Nc3ccc(C#N)c(C(F)(F)F)c3)C23CCC3)cc1 [NC36, 1-(4-Cyano-3-trifluoromethyl-phenyl)-3-[7-(4-cyano-3-trifluoromethyl-phenyl)-6-thioxo-5-p-tolyl-5,7-diaza-spiro[3.4]oct-8-ylidene]-thiourea]
- agonistic activity on AR response reporter [2]: no agonistic activity
- agonistic activity on secreted PSA [3]: no agonistic activities

SMILES: CN1C(=O)N(c2ccc(C#N)c(C(F)(F)F)c2)C(=O)C12CCC2 [NC25, 4-(5-methyl-6,8-dioxo-5,7-diazaspiro[3.4]oct-7-yl)-2-trifluoromethylbenzonitrile, reference compound]
- inhibitory activity on AR response reporter [4]: no inhibitory activities
- agonistic activity on AR response reporter [2]: strongly activated AR
- agonistic activity on secreted PSA [3]: stimulated PSA expression

SMILES: N#Cc1ccc(N2C(=O)C3(CCC3)N(c3ccc(CCC(=O)NCCO)cc3)C2=S)cc1C(F)(F)F [NC45, 3-{4-[7-(4-cyano-3-trifluoromethylphenyl)-8-oxo-6-thioxo-5,7-diaza-spiro[3.4]oct-5-yl]-phenyl}-N-(2-hydroxyethyl)-propionamide]
- decrease in PSA level of LNCaP-AR cells (comparison) [1]: greater decrease in PSA level than bicalutamide
- rank by relative PSA level, most active to least active [1]: NC50>NC48>NC7>NC43>NC44>NC49>NC50>NC45>bicalutamide

SMILES: Cc1ccc(N2C(=S)N(c3ccc(C#N)c(C(F)(F)F)c3)C(=NC(=S)Nc3ccccc3)C23CCC3)cc1 [NC35, 1-[7-(4-cyano-3-trifluoromethyl-phenyl)-6-thioxo-5-p-tolyl-5,7-diaza-spiro[3.4]oct-8-ylidene]-3-phenyl-thiourea]
- agonistic activity on AR response reporter [2]: no agonistic activity
- agonistic activity on secreted PSA [3]: no agonistic activities

SMILES: CN(C)C(=O)CCCc1ccc(N2C(=S)N(c3ccc(C#N)c(C(F)(F)F)c3)C(=O)C23CCC3)cc1 [NC56, 4-(4-(7-(4-Cyano-3-(trifluoromethyl)phenyl)-8-oxo-6-thioxo-5,7-diazaspiro[3.4]octan-5-yl)phenyl)-N,N-dimethylbutanamide]
- PSA levels of LN-AR cells [1]: PSA levels of LN-AR cells decreased

SMILES: N#Cc1ccc(N2C(=O)C3(CCCC3)NC2=S)cc1C(F)(F)F [NC28, 4-(4-oxo-2-thioxo-1,3-diazaspiro[4.4]non-3-yl)-2-trifluoromethylbenzonitrile, reference compound]
- inhibitory activity on AR response reporter [4]: no inhibitory activities
- agonistic activity on AR response reporter [2]: strongly activated AR

SMILES: CS(=O)(=O)c1ccc(N2C(=S)N(c3ccc(C#N)c(C(F)(F)F)c3)C(=O)C23CCC3)cc1 [NC66]
- luciferase activity in LNCaP-AR cells [4]: acted to reduce luciferase activity
- rank by relative luciferase activity, most active to least active [4]: NC67>NC68>NC66>NC69>NC77=NC53>bicalutamide

SMILES: N#CCCCc1ccc(N2C(=S)N(c3ccc(C#N)c(C(F)(F)F)c3)C(=O)C23CCC3)cc1 [NC57, 4-(5-(4-(3-Cyanopropyl)phenyl)-8-oxo-6-thioxo-5,7-diazaspiro[3.4]octan-7-yl)-2-(trifluoromethyl)benzonitrile]
- PSA levels of LN-AR cells [1]: PSA levels of LN-AR cells decreased

SMILES: CNC(=O)c1ccc(N2C(=S)N(c3ccc(C#N)c(C(F)(F)F)c3)C(=O)C23CCCC3)cc1F [NC55, 4-(3-(4-Cyano-3-(trifluoromethyl)phenyl)-4-oxo-2-thioxo-1,3-diazaspiro[4.4]nonan-1-yl)-2-fluoro-N-methylbenzamide]
- PSA levels of LN-AR cells [1]: PSA levels of LN-AR cells decreased

SMILES: COC(=O)c1ccc(N2C(=S)N(c3ccc(C#N)c(C(F)(F)F)c3)C(=O)C2(C)C)cc1 [NC67]
- luciferase activity in LNCaP-AR cells [4]: acted to reduce luciferase activity
- rank by relative luciferase activity, most active to least active [4]: NC67>NC68>NC66>NC69>NC77=NC53>bicalutamide

From US8648105B2, “Diarylthiohydantoin compounds” (The Regents of the University of California, priority 2006, dated 2014)
